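Protocol summary: plate cells (96-well), add compound at 5 concentrations, incubate 48 h, interpolate endpoints linearly. Abbreviation: GI50, concentration required for 50% inhibition of growth.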 Active and inactive are the calls of the source. Rule as the data show it: active = GI50 up to about 1.1 µM and inactive = higher.
Experiments:
Test in all cases: NCI-60 cell line screen, 48 h
[1] = test system: EKVX
[2] = test system: HCC 2998
[3] = test system: KM12
[4] = test system: M14
[5] = test system: MDA-MB-435
[6] = test system: MDA-N
[7] = test system: NCI-H226
[8] = test system: NCI-H460
[9] = test system: NCI-H522
[10] = test system: RPMI-8226
[11] = test system: SF-268
[12] = test system: SF-295
[13] = test system: SN12C
[14] = test system: SNB-75
[15] = test system: TK-10
[16] = test system: CCRF-CEM
[17] = test system: OVCAR-8
[18] = test system: RXF 393
[19] = test system: SW-620
[20] = test system: Hs-578T

Compound | GI50 [1] | GI50 [2] | GI50 [3] | GI50 [4] | GI50 [5] | GI50 [6] | GI50 [7] | GI50 [8] | GI50 [9] | GI50 [10] | GI50 [11] | GI50 [12] | GI50 [13] | GI50 [14] | GI50 [15] | GI50 [16] | GI50 [17] | GI50 [18] | GI50 [19] | GI50 [20]
N#CCC(=O)c1cc(OCc2cc(OCc3ccc(Br)cc3)cc(OCc3ccc(Br)cc3)c2)cc(OCc2cc(OCc3ccc(Br)cc3)cc(OCc3ccc(Br)cc3)c2)c1 | > 100 µM (inactive) | > 100 µM (inactive) | > 100 µM (inactive) | > 100 µM (inactive) | > 100 µM (inactive) | > 100 µM (inactive) | > 100 µM (inactive) | > 100 µM (inactive) | > 100 µM (inactive) | > 100 µM (inactive) | > 100 µM (inactive) | > 100 µM (inactive) | > 100 µM (inactive) | > 100 µM (inactive) | > 100 µM (inactive) | – | – | – | – | –
CCOC(=O)C12C3CCC1C2C(=O)C3 (stereo not drawn) | > 100 µM (inactive) | > 100 µM (inactive) | > 100 µM (inactive) | > 100 µM (inactive) | > 100 µM (inactive) | > 100 µM (inactive) | > 100 µM (inactive) | > 100 µM (inactive) | > 100 µM (inactive) | > 100 µM (inactive) | > 100 µM (inactive) | > 100 µM (inactive) | > 100 µM (inactive) | > 100 µM (inactive) | > 100 µM (inactive) | > 100 µM (inactive) | > 100 µM (inactive) | > 100 µM (inactive) | > 100 µM (inactive) | –
CCOC(=O)c1nc2ccc(C(F)(F)F)cc2nc1Oc1cc(OC)cc(OC)c1 | > 100 µM (inactive) | – | 36.8 µM (inactive) | > 100 µM (inactive) | 77.6 µM (inactive) | > 100 µM (inactive) | 67.8 µM (inactive) | 60.5 µM (inactive) | – | > 100 µM (inactive) | 93.3 µM (inactive) | 78.3 µM (inactive) | > 100 µM (inactive) | 21.4 µM (inactive) | > 100 µM (inactive) | > 100 µM (inactive) | > 100 µM (inactive) | > 100 µM (inactive) | > 100 µM (inactive) | 17 µM (inactive)
COC(=O)/C=C1/CCC(C)(C(=O)NS(=O)(=O)c2ccc(C)cc2)C1(C)C (stereo not drawn) | > 100 µM (inactive) | > 100 µM (inactive) | > 100 µM (inactive) | > 100 µM (inactive) | > 100 µM (inactive) | > 100 µM (inactive) | > 100 µM (inactive) | > 100 µM (inactive) | > 100 µM (inactive) | > 100 µM (inactive) | > 100 µM (inactive) | > 100 µM (inactive) | > 100 µM (inactive) | – | > 100 µM (inactive) | > 100 µM (inactive) | > 100 µM (inactive) | > 100 µM (inactive) | > 100 µM (inactive) | –
O=C1Oc2ccccc2C(=O)/C1=C/N1C(=O)N/C(=C\c2cccc(O)c2)C1=O | > 100 µM (inactive) | 55.7 µM (inactive) | 62.5 µM (inactive) | 83.8 µM (inactive) | 54.2 µM (inactive) | 63.8 µM (inactive) | > 100 µM (inactive) | 59 µM (inactive) | – | – | – | 67.3 µM (inactive) | 69.5 µM (inactive) | 8.36 µM (inactive) | 46.1 µM (inactive) | – | 33.2 µM (inactive) | – | 83.4 µM (inactive) | –
CC1=C([S+]([O-])c2ccc(C)cc2)CCC2(CCCCO2)O1 (stereo not drawn) | > 100 µM (inactive) | > 100 µM (inactive) | > 100 µM (inactive) | – | > 100 µM (inactive) | – | > 100 µM (inactive) | > 100 µM (inactive) | > 100 µM (inactive) | 66.5 µM (inactive) | > 100 µM (inactive) | > 100 µM (inactive) | > 100 µM (inactive) | > 100 µM (inactive) | > 100 µM (inactive) | – | > 100 µM (inactive) | > 100 µM (inactive) | > 100 µM (inactive) | > 100 µM (inactive)
CC1=C(NC(=O)/C(=N/NC(=S)NN)C2C(=O)CC(C)(C)CC2=O)C(=O)c2ccccc2C1=O | 15.7 µM (inactive) | 10.8 µM (inactive) | 7.03 µM (inactive) | 6.47 µM (inactive) | – | – | 14 µM (inactive) | 17.7 µM (inactive) | 2.85 µM (inactive) | 10.6 µM (inactive) | 8.18 µM (inactive) | 13.7 µM (inactive) | 7.4 µM (inactive) | 21.6 µM (inactive) | 16.1 µM (inactive) | 3.56 µM (inactive) | 4.55 µM (inactive) | 17.9 µM (inactive) | 8.49 µM (inactive) | –
N#CC(/N=N/c1ccccc1C(=O)O)C(N)=O (stereo not drawn) | > 100 µM (inactive) | – | > 100 µM (inactive) | > 100 µM (inactive) | > 100 µM (inactive) | > 100 µM (inactive) | 82.8 µM (inactive) | > 100 µM (inactive) | > 100 µM (inactive) | > 100 µM (inactive) | – | > 100 µM (inactive) | > 100 µM (inactive) | 60.3 µM (inactive) | > 100 µM (inactive) | > 100 µM (inactive) | – | > 100 µM (inactive) | > 100 µM (inactive) | –
N#Cc1nc(Cc2ccccc2)oc1N | > 100 µM (inactive) | – | > 100 µM (inactive) | > 100 µM (inactive) | > 100 µM (inactive) | > 100 µM (inactive) | > 100 µM (inactive) | > 100 µM (inactive) | – | 16.9 µM (inactive) | > 100 µM (inactive) | > 100 µM (inactive) | > 100 µM (inactive) | – | > 100 µM (inactive) | 44.3 µM (inactive) | – | > 100 µM (inactive) | > 100 µM (inactive) | 25.2 µM (inactive)
Cc1cc(OP2(=O)NCc3ncccc3O2)ccc1Cl (stereo not drawn) | > 100 µM (inactive) | 40.6 µM (inactive) | 58.5 µM (inactive) | > 100 µM (inactive) | > 100 µM (inactive) | > 100 µM (inactive) | > 100 µM (inactive) | > 100 µM (inactive) | – | > 100 µM (inactive) | – | > 100 µM (inactive) | > 100 µM (inactive) | > 100 µM (inactive) | – | > 100 µM (inactive) | > 100 µM (inactive) | > 100 µM (inactive) | > 100 µM (inactive) | –
COc1cc(/C=C2\N=C(c3ccccc3)N(c3nc4cc(C)c(C)cc4s3)C2=O)cc(OC)c1OC | 17.5 µM (inactive) | 20.9 µM (inactive) | 21.8 µM (inactive) | 33.3 µM (inactive) | 12.9 µM (inactive) | 16.1 µM (inactive) | – | 29.2 µM (inactive) | – | 19.3 µM (inactive) | 23 µM (inactive) | 27.9 µM (inactive) | 34.8 µM (inactive) | 18.5 µM (inactive) | 60 µM (inactive) | 7.41 µM (inactive) | 19.8 µM (inactive) | 19.3 µM (inactive) | 29.4 µM (inactive) | 16.6 µM (inactive)
COC1C2c3ccccc3C(C#N)(Cc3ccc4c(c32)OCO4)N1C(=O)c1ccccc1 (stereo not drawn) | 45.8 µM (inactive) | 37.9 µM (inactive) | 24.9 µM (inactive) | 26.6 µM (inactive) | – | – | 12.5 µM (inactive) | 25.9 µM (inactive) | 10.5 µM (inactive) | 16.3 µM (inactive) | > 100 µM (inactive) | > 100 µM (inactive) | > 100 µM (inactive) | 50.6 µM (inactive) | > 100 µM (inactive) | 25.4 µM (inactive) | 84.9 µM (inactive) | 16.3 µM (inactive) | 32.8 µM (inactive) | –
O=c1[nH][nH]c(=O)n1/N=C/c1ccccc1 | > 100 µM (inactive) | – | > 100 µM (inactive) | > 100 µM (inactive) | > 100 µM (inactive) | > 100 µM (inactive) | > 100 µM (inactive) | > 100 µM (inactive) | – | > 100 µM (inactive) | > 100 µM (inactive) | > 100 µM (inactive) | > 100 µM (inactive) | > 100 µM (inactive) | > 100 µM (inactive) | > 100 µM (inactive) | > 100 µM (inactive) | – | > 100 µM (inactive) | > 100 µM (inactive)
CN(C)c1ccc(/C=N/NC(=S)Nc2ccccc2)cc1 | > 100 µM (inactive) | – | > 100 µM (inactive) | > 100 µM (inactive) | > 100 µM (inactive) | – | > 100 µM (inactive) | > 100 µM (inactive) | > 100 µM (inactive) | > 100 µM (inactive) | > 100 µM (inactive) | > 100 µM (inactive) | > 100 µM (inactive) | > 100 µM (inactive) | > 100 µM (inactive) | > 100 µM (inactive) | > 100 µM (inactive) | > 100 µM (inactive) | > 100 µM (inactive) | > 100 µM (inactive)
CCN(CC)CCNc1ccc(/N=N/c2ccc(S(N)(=O)=O)cc2)c2ccccc12 | 19 µM (inactive) | 8.75 µM (inactive) | 6.01 µM (inactive) | 3.72 µM (inactive) | 7.35 µM (inactive) | – | 23.6 µM (inactive) | 7.4 µM (inactive) | 14.9 µM (inactive) | 3.37 µM (inactive) | 10.1 µM (inactive) | 4.3 µM (inactive) | 8.89 µM (inactive) | 10.3 µM (inactive) | 19.1 µM (inactive) | 4.51 µM (inactive) | 5.82 µM (inactive) | 3.61 µM (inactive) | 3.3 µM (inactive) | 15.5 µM (inactive)
CCCCCCCCCCCC[C@@H](O)[C@H]1CC[C@H]([C@H]2CC[C@H]([C@H](O)CC[C@H](O)CCCCCCCC3=C[C@H](C)OC3=O)O2)O1 | 1.1 µM (active) | – | 1.44 µM (inactive) | 1.64 µM (inactive) | 1.77 µM (inactive) | 1.9 µM (inactive) | 1.67 µM (inactive) | 1.08 µM (active) | – | 1.2 µM (inactive) | 1.55 µM (inactive) | 1.26 µM (inactive) | 3.22 µM (inactive) | 1.75 µM (inactive) | 1.21 µM (inactive) | 1.09 µM (active) | 1.82 µM (inactive) | 2.12 µM (inactive) | 1.94 µM (inactive) | 2.18 µM (inactive)
